These results are taken from ChEMBL document CHEMBL1135215, “Synthesis and cytotoxicity of 3,4-diaryl-2(5H)-furanones” (2002).

One test concerns Cancer cell lines. The test is described as follows: Average cytotoxic activity (AC) in three cancer cell lines A549, SK-MEL-2 and MCF-7 was calculated. The test is classed as functional, Homo sapiens. Also noted: unit not given beside the values.
A further test deals with A549. The test is described as follows: Cytotoxic activity against human lung cancer A549 cell line was determined. The test is classed as functional. Conditions: read-out: ED50 (the source's name).
A further test relates to MCF7. The test is described as follows: Cytotoxic activity against human breast cancer MCF-7 cell line was determined. Conditions: read-out: ED50 (the source's name). It counts as functional.
For another test, the system named is SK-MEL-2. The test is described as follows: Cytotoxic activity against human melanoma SK-MEL-2 was determined. The test is classed as functional. Conditions: read-out: ED50 (the source's name).

`COc1cc(-n2c(-c3ccc4c(c3)OCO4)coc2=O)cc(OC)c1OC`: the AC in the test with Cancer cell lines is 64.5. Further, the EC50 with A549, in the test with MCF7 and in the test on SK-MEL-2 was 64.5 nM each time.

Consider `COc1ccc(C2=C(c3cc(OC)c(OC)c(OC)c3)C(=O)OC2)cc1O`, for which the AC with Cancer cell lines is recorded as 12.6. The EC50 was 16.3 nM with A549, 11.4 nM in the test with MCF7 and 10.2 nM with SK-MEL-2.

As for `COc1cc(C2=C(c3ccc(N)cc3)COC2=O)cc(OC)c1OC`, in the test on Cancer cell lines, the AC is 45.7. The values for the EC50 with A549, in the test on MCF7 and in the test on SK-MEL-2 were 54.7 nM, 33 nM and 49.3 nM, respectively.

As to `COc1cc(C2=C(c3ccc4c(c3)OCO4)COC2=O)cc(OC)c1OC`, in the test with Cancer cell lines, the AC is 83.8. The EC50 was found to be 100 nM in the test on A549, 80.4 nM in the test with MCF7 and 70.8 nM with SK-MEL-2.

Regarding `COc1ccccc1C1=C(c2cc(OC)c(OC)c(OC)c2)C(=O)OC1`, in the test on Cancer cell lines, the AC is recorded as above 5000. Moreover, the EC50 in the test with A549, with MCF7 and in the test with SK-MEL-2 was above 5000 nM each time.

Consider `COc1cc([C@@H]2c3cc4c(cc3C[C@H]3COC(=O)[C@@H]32)OCO4)cc(OC)c1OC` [DESOXYPODOPHYLLOTOXIN], for which, in the test on Cancer cell lines, the AC is listed as 11.9. In addition, the EC50 is 15.5 nM in the test on A549, 11.7 nM in the test with MCF7 and 8.4 nM in the test with SK-MEL-2.
